Experimental data as given in ChEMBL document CHEMBL1201862, “PubChem BioAssay data set” (2004).
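Cultured in 96-well plates, cells were exposed to test compound for 48 hours across five concentrations. The concentration for 50% growth inhibition is given as GI50.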 Calls of active or inactive are those of the source. Cut-off read from the data, not from the text of the source: active = GI50 up to about 1.1 µM and inactive = higher.

Columns and labels:
Test in all cases: DTP human tumour cell line panel, 48 h
A498 = system: A498
A549 = system: A549
CAKI-1 = system: CAKI-1
CCRF-CEM = system: CCRF-CEM
COLO 205 = system: COLO 205
DLD-1 = system: DLD-1
DMS-114 = system: DMS-114
DMS-273 = system: DMS-273
EKVX = system: EKVX
HCC 2998 = system: HCC 2998
HCT-116 = system: HCT-116
HCT-15 = system: HCT-15
HL-60 = system: HL-60
HOP-18 = system: HOP-18
HOP-62 = system: HOP-62
HOP-92 = system: HOP-92
HT-29 = system: HT-29
IGROV-1 = system: IGROV-1
K562 = system: K562
KM-20L2 = system: KM-20L2
KM12 = system: KM12
LOX IMVI = system: LOX IMVI
M19-MEL = system: M19-MEL
MCF7 = system: MCF7
MOLT-4 = system: MOLT-4
Malme-3M = system: Malme-3M
NCI-H226 = system: NCI-H226
NCI-H23 = system: NCI-H23
NCI-H460 = system: NCI-H460
NCI-H522 = system: NCI-H522
NCI/ADR-RES = system: NCI/ADR-RES
OVCAR-3 = system: OVCAR-3
OVCAR-4 = system: OVCAR-4
OVCAR-5 = system: OVCAR-5
OVCAR-8 = system: OVCAR-8
RPMI-8226 = system: RPMI-8226
RXF 393 = system: RXF 393
SF-268 = system: SF-268
SF-295 = system: SF-295
SF-539 = system: SF-539
SK-MEL-28 = system: SK-MEL-28
SK-MEL-2 = system: SK-MEL-2
SK-MEL-5 = system: SK-MEL-5
SK-OV-3 = system: SK-OV-3
SN12C = system: SN12C
SNB-19 = system: SNB-19
SNB-75 = system: SNB-75
SNB-78 = system: SNB-78
SW-620 = system: SW-620
U-251 = system: U-251
UACC-257 = system: UACC-257
UACC-62 = system: UACC-62
UO-31 = system: UO-31
XF498 = system: XF498
SR = system: SR
786-0 = system: 786-0
ACHN = system: ACHN
LXFL 529 = system: LXFL 529
M14 = system: M14
TK-10 = system: TK-10

`Cc1c2ccncc2cc2c1[nH]c1ccccc12` was tested, and the GI50 (A498) was 0.804 µM (active), the GI50 (A549) was 3.22 µM (inactive) and the GI50 (CAKI-1) was 3.88 µM (inactive). The GI50 (CCRF-CEM) was 3.78 µM (inactive), the GI50 (COLO 205) was 1.64 µM (inactive) and the GI50 (DLD-1) was 5.01 µM (inactive). For the same compound, the GI50 (DMS-114) was 5.27 µM (inactive), the GI50 (DMS-273) was 1.19 µM (inactive) and the GI50 (EKVX) was 4.4 µM (inactive). The GI50 (HCC 2998) was 5.04 µM (inactive), the GI50 (HCT-116) was 2.44 µM (inactive) and the GI50 (HCT-15) was 4.2 µM. For the same compound, the GI50 (HL-60) was 3.41 µM (inactive), the GI50 (HOP-18) was 0.789 µM (active) and the GI50 (HOP-62) was 8.71 µM (inactive). The GI50 (HOP-92) was 5.37 µM (inactive), the GI50 (HT-29) was 4.42 µM (inactive) and the GI50 (IGROV-1) was 6.22 µM (inactive). The GI50 (K562) was 3.48 µM (inactive), the GI50 (KM-20L2) was 3.37 µM (inactive) and the GI50 (KM12) was 4.56 µM (inactive). For the same compound, the GI50 (LOX IMVI) was 2.33 µM (inactive), the GI50 (M19-MEL) was 3.81 µM (inactive) and the GI50 (MCF7) was 1.57 µM (inactive). For the same compound, the GI50 (MOLT-4) was 1.98 µM (inactive), the GI50 (Malme-3M) was 7.05 µM (inactive) and the GI50 (NCI-H226) was 6.14 µM (inactive). For the same compound, the GI50 (NCI-H23) was 4.08 µM (inactive), the GI50 (NCI-H460) was 1.77 µM (inactive) and the GI50 (NCI-H522) was 3.92 µM (inactive). For the same compound, the GI50 (NCI/ADR-RES) was 3.01 µM (inactive), the GI50 (OVCAR-3) was 5.6 µM (inactive) and the GI50 (OVCAR-4) was 6.12 µM (inactive). For the same compound, the GI50 (OVCAR-5) was 4.34 µM (inactive), the GI50 (OVCAR-8) was 3.44 µM (inactive) and the GI50 (RPMI-8226) was 3.07 µM (inactive). The GI50 (RXF 393) was 2.68 µM (inactive), the GI50 (SF-268) was 8.22 µM (inactive) and the GI50 (SF-295) was 5.02 µM (inactive). For the same compound, the GI50 (SF-539) was 2.48 µM (inactive), the GI50 (SK-MEL-28) was 3.85 µM (inactive) and the GI50 (SK-MEL-2) was 7.43 µM (inactive). For the same compound, the GI50 (SK-MEL-5) was 3.97 µM (inactive), the GI50 (SK-OV-3) was 5.65 µM (inactive) and the GI50 (SN12C) was 1.58 µM (inactive). The GI50 (SNB-19) was 5.71 µM (inactive), the GI50 (SNB-75) was 5.26 µM (inactive) and the GI50 (SNB-78) was 13 µM (inactive). The GI50 (SW-620) was 2.42 µM (inactive), the GI50 (U-251) was 2.86 µM (inactive) and the GI50 (UACC-257) was 5.55 µM (inactive). The GI50 (UACC-62) was 5.11 µM (inactive), the GI50 (UO-31) was 3.45 µM (inactive) and the GI50 (XF498) was 1.12 µM (active).

`O=C(OC/C=C1C=C(OC(=O)c2ccccc2)/C(=N/N(C(=O)c2ccccc2)c2ccccc2)O\1)c1ccccc1` was tested, and the GI50 (CAKI-1) was < 0.01 µM (active), the GI50 (DMS-114) was 12.8 µM (inactive) and the GI50 (HCC 2998) was < 0.01 µM (active). For the same compound, the GI50 (HOP-18) was < 0.01 µM (active), the GI50 (K562) was < 0.01 µM (active) and the GI50 (KM12) was < 0.01 µM (active). For the same compound, the GI50 (MOLT-4) was < 0.01 µM (active), the GI50 (NCI-H226) was 0.512 µM (active) and the GI50 (RPMI-8226) was < 0.01 µM (active). For the same compound, the GI50 (RXF 393) was 2.12 µM (inactive), the GI50 (SNB-19) was < 0.01 µM (active) and the GI50 (SNB-78) was 26.3 µM (inactive). For the same compound, the GI50 (SR) was < 0.01 µM (active) and the GI50 (XF498) was 15.8 µM (inactive).

With `OC12CCC3(OC4CCCCO4)c4ccccc4C3C1c1ccccc12` (configuration not stated) the GI50 (786-0) was 67.5 µM (inactive), the GI50 (A549) was 85.1 µM (inactive) and the GI50 (ACHN) was 41.7 µM (inactive). For the same compound, the GI50 (CCRF-CEM) was 58.9 µM (inactive), the GI50 (COLO 205) was 55.1 µM (inactive) and the GI50 (DMS-114) was 87.5 µM (inactive). The GI50 (DMS-273) was 61.7 µM (inactive), the GI50 (EKVX) was > 100 µM (inactive) and the GI50 (HCT-116) was 35 µM (inactive). For the same compound, the GI50 (HCT-15) was 24.2 µM, the GI50 (HL-60) was 30.3 µM (inactive) and the GI50 (HOP-18) was > 100 µM (inactive). For the same compound, the GI50 (HOP-62) was > 100 µM (inactive), the GI50 (HT-29) was 43.9 µM (inactive) and the GI50 (K562) was 46 µM (inactive). The GI50 (KM-20L2) was 59.3 µM (inactive), the GI50 (KM12) was 54.6 µM (inactive) and the GI50 (LOX IMVI) was 38.8 µM (inactive). For the same compound, the GI50 (LXFL 529) was 41.2 µM (inactive), the GI50 (M14) was 67.6 µM (inactive) and the GI50 (M19-MEL) was 90.4 µM (inactive). For the same compound, the GI50 (MOLT-4) was 35.4 µM (inactive), the GI50 (Malme-3M) was > 100 µM (inactive) and the GI50 (NCI-H226) was > 100 µM (inactive). The GI50 (NCI-H23) was 90.2 µM (inactive), the GI50 (NCI-H460) was 35.2 µM (inactive) and the GI50 (NCI-H522) was 37.6 µM (inactive). For the same compound, the GI50 (OVCAR-4) was > 100 µM (inactive), the GI50 (OVCAR-8) was 74.3 µM (inactive) and the GI50 (RPMI-8226) was 36 µM (inactive). For the same compound, the GI50 (RXF 393) was 44.6 µM (inactive), the GI50 (SF-268) was 65.9 µM (inactive) and the GI50 (SF-295) was 52.5 µM (inactive). For the same compound, the GI50 (SK-MEL-28) was 76 µM (inactive), the GI50 (SK-MEL-2) was > 100 µM (inactive) and the GI50 (SK-MEL-5) was 48.5 µM (inactive). For the same compound, the GI50 (SK-OV-3) was > 100 µM (inactive), the GI50 (SN12C) was 87.7 µM (inactive) and the GI50 (SNB-19) was 61.9 µM (inactive). For the same compound, the GI50 (SNB-75) was > 100 µM (inactive), the GI50 (SNB-78) was > 100 µM (inactive) and the GI50 (SR) was 37.2 µM (inactive). For the same compound, the GI50 (SW-620) was 55.6 µM (inactive), the GI50 (TK-10) was > 100 µM (inactive) and the GI50 (U-251) was 53.8 µM (inactive). The GI50 (UACC-257) was 91.2 µM (inactive), the GI50 (UACC-62) was 56.8 µM (inactive) and the GI50 (UO-31) was 59.6 µM (inactive). The GI50 (XF498) was 31.8 µM (inactive).
